Among the data in EP1359152B1, “Diazabicyclic derivatives as nicotinic acetylcholine receptor ligands” (ABBOTT LABORATORIES, priority 1999, dated 2000) are minimal effective dose and Ki values, retold here.

For one test, the system named is mice. Briefly: Mouse hot plate paradigm (analgesic effect, latency until tenth jump). Format: in vivo. The settings on record: ip, 0.5 h, minimally effective dose among doses tested, intraperitoneal, dosed 30 minutes prior to testing, hot plate 55 °C, cut-off 180 seconds, increase in tenth jump latency relative to control, read-out: (MED). As for the experimental part: An in vivo protocol was utilized to determine the effectiveness of nicotinic acetylcholine receptor ligands as analgesic agents in the mouse hot plate paradigm.
Separate groups of mice, (n=8/group) were utilized for each dose group. All drugs were administered by the intraperitoneal route of administration. Test drugs were dissolved in water to make a 6.2 mM stock solution. Animals were dosed with this solution (10 mL/kg body weight) for a 62 micromol/kg dose. Lower doses were administered similarly, following serial dilution of the stock solution in half-log increments. Animals were dosed 30 minutes prior to testing in the hot plate. The hotplate utilized was an automated analgesia monitor (Model #AHP16AN, Omnitech Electronics, Inc. of Columbus, Ohio). The temperature of the hot plate was maintained at 55 °C and a cut-off time of 180 seconds was utilized. Latency until the tenth jump was recorded as the dependent measure. An increase in the tenth jump latency relative to the control was considered an effect.

Test [1] has as its target T1, neuronal nicotinic acetylcholine receptors (Rattus norvegicus, UniProt P09483+P12390).
T1 construct: crude synaptic membrane preparations from whole rat brain; from tissue; host or cells: whole rat brain, crude synaptic membranes
In words: [3H]-cytisine binding to neuronal nicotinic acetylcholine receptors, crude synaptic membranes from whole rat brain. As for the experimental part:
The In Vitro protocols for determination of nicotinic acetylcholine channel receptor binding potencies of ligands were determined as follows.
Washed membranes were stored at-80 °C prior to use. Frozen aliquots were slowly thawed and resuspended in 20 volumes of buffer (containing: 120 mM NaCl, 5 mM KCI, 2 mM MgCl2, 2 mM CaCl2 and 50 mM Tris-Cl, pH 7.4 @4 °C). After centrifuging at 20,000x g for 15 minutes, the pellets were resuspended in 30 volumes of buffer.
The test compounds were dissolved in water to make 10 mM stock solutions. Each solution was then diluted (1:100) with buffer (as above) and further taken through seven serial log dilutions to produce test solutions from 10^-5 to 10^-11 M.
Samples were incubated for 60 minutes at 4 °C, then rapidly filtered through Whatman GF/B filters presoaked in 0.5% polyethyleneimine using 3 x 4 mL of ice-cold buffer. The filters are counted in 4 mL of Ecolume® (ICN). Nonspecific binding was determined in the presence of 10 µM (-)-nicotine and values were expressed as a percentage of total binding. IC50 values were determined with the RS-1 (BBN) nonlinear least squares curve-fitting program and IC50 values were converted to Ki values using the Cheng and Prusoff correction (Ki=IC50/(1+[ligand]/Kd of ligand).

[2] abbreviates: [3H]-CYT 1.25 nM, 60 minutes at 4 °C, whole rat brain membranes, Ki from IC50 by Cheng and Prusoff correction, read-out: Average Ki.

Structures can show the parent of a compound that is named as a salt. Where two headings read alike, the source gives them in different places.

T1 sequence (P09483 31-630): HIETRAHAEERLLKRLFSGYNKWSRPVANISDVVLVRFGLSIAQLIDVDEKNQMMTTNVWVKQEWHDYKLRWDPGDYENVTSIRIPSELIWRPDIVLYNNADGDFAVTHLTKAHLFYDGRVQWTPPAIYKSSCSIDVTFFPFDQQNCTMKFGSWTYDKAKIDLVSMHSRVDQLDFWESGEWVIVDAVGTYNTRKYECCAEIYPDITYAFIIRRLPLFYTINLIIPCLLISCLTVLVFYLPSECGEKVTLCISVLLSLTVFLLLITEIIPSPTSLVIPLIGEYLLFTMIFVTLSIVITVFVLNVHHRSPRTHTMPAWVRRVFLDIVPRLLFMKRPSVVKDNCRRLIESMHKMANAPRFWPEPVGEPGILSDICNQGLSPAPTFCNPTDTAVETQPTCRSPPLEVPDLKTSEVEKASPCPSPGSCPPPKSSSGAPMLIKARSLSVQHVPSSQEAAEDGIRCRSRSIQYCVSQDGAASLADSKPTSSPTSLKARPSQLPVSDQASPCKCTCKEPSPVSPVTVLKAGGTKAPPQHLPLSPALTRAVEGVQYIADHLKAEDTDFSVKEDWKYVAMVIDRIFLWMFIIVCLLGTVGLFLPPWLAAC
T1 sequence (P12390 25-500): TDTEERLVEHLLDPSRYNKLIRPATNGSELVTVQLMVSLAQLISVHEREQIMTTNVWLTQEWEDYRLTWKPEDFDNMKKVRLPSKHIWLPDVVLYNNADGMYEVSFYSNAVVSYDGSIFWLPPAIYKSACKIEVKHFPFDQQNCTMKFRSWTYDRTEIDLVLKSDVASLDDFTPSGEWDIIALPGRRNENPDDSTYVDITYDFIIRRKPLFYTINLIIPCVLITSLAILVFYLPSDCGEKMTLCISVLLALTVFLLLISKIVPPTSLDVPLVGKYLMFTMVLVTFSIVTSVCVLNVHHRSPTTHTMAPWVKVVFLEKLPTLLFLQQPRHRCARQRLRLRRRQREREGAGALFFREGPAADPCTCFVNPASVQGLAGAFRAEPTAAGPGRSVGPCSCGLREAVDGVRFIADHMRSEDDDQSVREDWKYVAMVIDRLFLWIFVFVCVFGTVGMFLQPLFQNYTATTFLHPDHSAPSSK

For `Cc1cc(N2C[C@@H]3C[C@H]2CN3)nnc1Cl` [Example 4, (1S,4S)-2-(6-chloro-5-methyl-3-pyridazinyl)-2,5-diazabicyclo[2,2,1]heptane bis(4-methylbenzenesulfonate)], the minimal effective dose in the test on mice was 62 µmol/kg. Besides, the Ki (usually the dissociation constant of the complex between target and ligand, obtained from inhibition or displacement) in test [1] worked out at 3800 pM.

Turning to `Brc1cncc(N2C[C@@H]3C[C@H]2CN3)c1` [Example 31, (1S,4S)-2-(5-bromo-3-pyridinyl)-2,5-diazabicyclo[2.2.1]heptane 4-methylbenzenesulfonate], the minimal effective dose in the test with mice was 62 µmol/kg. Besides, the Ki in test [1] was found to be 1200 pM.

On to `c1cnnc(N2C[C@H]3C[C@@H]2CN3)c1` [Example 25, (1R,4R)-2-(3-pyridazinyl)-2,5-diazabicyclo[2,2,1]heptane 4-methylbenzenesulfonate], for which the minimal effective dose with mice amounted to 19 µmol/kg. This compound showed a Ki in test [1] of 400 pM.

With `c1cncc(CN2C[C@H]3C[C@@H]2CN3)c1` [Example 20, (1R,4R)-2-(3-pyridinylmethyl)-2,5-diazabicyclo[2.2.1]heptane trihydrobromide], the minimal effective dose with mice is 62 µmol/kg. The compound also yielded a Ki in test [1] of 52000 pM.

On to `Clc1cc(N2C[C@H]3C[C@@H]2CN3)cnc1Cl` [Example 48, (1R,4R)-2-(5,6-dichloro-3-pyridinyl)-2,5-diazabicyclo[2.2.1]heptane 4-methylbenzenesulfonate], for which the minimal effective dose with mice was found to be 6.2 µmol/kg. Besides, the inhibitory constant (Ki) in test [1] is 10 pM.

For `c1cncc(N2CCC3CCC(C2)N3)c1` (stereo not shown) [Example 41, 3-(3-pyridinyl)-3,9-diazabicyclo[4.2,1]nonane bis(4-methylbenzenesulfonate)], the minimal effective dose in the test on mice turned out to be 6.2 µmol/kg. For the same compound, the Ki in test [1] is 30 pM.

For `Oc1cc(N2C[C@H]3C[C@@H]2CN3)cnc1Cl` [Example 40, (1R,4R)-2-(6-chloro-5-hydroxy-3-pyridinyl)-2,5-diazabicyclo[2.2.1]heptane 4-methylbenzenesulfonate], the minimal effective dose in the test with mice worked out at 19 µmol/kg. Moreover, the Ki in test [1] worked out at 170 pM.

Regarding `Clc1ccc(N2C[C@@H]3C[C@H]2CN3)cn1` [Example 1, (1S,4S)-2-(6-chloro-3-pyridinyl)-2,5-diazabicyclo[2,2,1]heptane 4-methylbenzenesulfonate], the minimal effective dose in the test with mice came out at 6.2 µmol/kg. In addition, in test [1], the Ki stood at 41 pM.

On to `Fc1ccc(N2C[C@@H]3C[C@H]2CN3)cn1` [Example 30, (1S,4S)-2-(6-fluoro-3-pyridinyl)-2,5-diazabicyclo[2.2.1]heptane bis(4-methylbenzenesulfonate)], for which the minimal effective dose in the test on mice came to 1.9 µmol/kg. Further, the Ki in test [1] was found to be 170 pM.

Regarding `N#Cc1cncc(N2C[C@H]3C[C@@H]2CN3)c1` [Example 44, (1R,4R)-2-(5-cyano-3-pyridinyl)-2,5-diazabicyclo[2,2,1]heptane 4-methylbenzenesulfonate], the minimal effective dose in the test on mice is 0.62 µmol/kg. This compound registered a Ki in test [1] of 30 pM.

Take `c1cncc(N2CC3CNCC(C3)C2)c1` [Example 57, 3-(3-pyridinyl)-3,7-diazabicyclo[3.3.1]nonane bis(4-methylbenzenesulfonate)]: the minimal effective dose with mice is 1.9 µmol/kg. Also, in test [1] (setting [2]), the Ki is 20 pM.

As to `N#CCN1C[C@H]2C[C@@H]1CN2c1ccc(Cl)nc1` [Example 27, (1R,4R)-2-(6-chloro-3-pyridinyl)-5-cyanomethyl-2,5-diazabicyclo[2.2.1]heptane 4-methylbenzenesulfonate], the minimal effective dose with mice was 1.9 µmol/kg. For the same compound, in test [1], the affinity, expressed as Ki, was 50 pM.

`Clc1ccc(N2C[C@H]3C[C@@H]2CN3)cn1` [Example 15, (1R,4R)-2-(6-chloro-3-pyridinyl)-2,5-diazabicyclo[2.2.1]heptane 4-methylbenzenesulfonate]: the minimal effective dose in the test on mice came out at 0.62 µmol/kg. This compound gave a Ki in test [1] of 10 pM.

As for `Clc1ccc(N2CCC3CCC(C2)N3)cn1` (stereo not shown) [Example 36, 3-(6-chloro-3-pyridinyl)-3,9-diazabicyclo[4.2.1]nonane hydrochloride], the minimal effective dose in the test on mice turned out to be 1.9 µmol/kg. The Ki in test [1] was determined as 60 pM.

For the compound `Fc1ccc(N2C[C@H]3C[C@@H]2CN3)cn1` [Example 33, (1R,4R)-2-(6-fluoro-3-pyridinyl)-2,5-diazabicyclo[2.2.1]heptane 4-methylbenzenesulfonate], the minimal effective dose with mice worked out at 0.19 µmol/kg. In test [1], this compound yielded a Ki of 30 pM.

For `Oc1cncc(N2C[C@H]3C[C@@H]2CN3)c1` [Example 39, (1R,4R)-2-(5-hydroxy-3-pyridinyl)-2,5-diazabicyclo[2.2.1]heptane 4-methylbenzenesulfonate], the minimal effective dose with mice is 62 µmol/kg. The affinity in test [1], expressed as Ki, was 40 pM.

For the compound `Clc1ccc(N2CCC3CC2CN3)cn1` (stereo not shown) [Example 35, 2-(6-chloro-3-pyridinyl)-2,6-diazabicyclo[3.2.1]octane trihydrochloride], the minimal effective dose in the test on mice is 19 µmol/kg. Besides, the Ki in test [1] (setting [2]) stood at 1500 pM.

`c1cncc(N2C[C@H]3C[C@@H]2CN3)c1` [Example 24, (1R,4R)-2-(3-pyridinyl)-2,5-diazabicyclo[2.2.1]heptane 4-methylbenzenesulfonate]: the minimal effective dose with mice was determined as 6.2 µmol/kg. In test [1], this compound gave a Ki of 12 pM.

Take `COc1ccc(N2C[C@H]3C[C@@H]2CN3)cn1` [Example 46, (1R,4R)-2-(6-methoxy-3-pyridinyl)-2,5-diazabicyclo[2.2.1]heptane 4-methylbenzenesulfonate]: the minimal effective dose in the test with mice was 6.2 µmol/kg. The affinity in test [1] corresponds to a Ki of 250 pM.

In the case of `NC(=O)c1cncc(N2C[C@@H]3C[C@H]2CN3)c1` [Example 38, (1S,4S)-2-(5-aminocarbonyl-3-pyridinyl)-2,5-diazabicyclo[2.2.1]heptane bis(4-methylbenzenesulfonate)], the minimal effective dose in the test on mice came to 19 µmol/kg. This compound also came in with a Ki in test [1] of 24000 pM.
